Assay results: PMC9230136 (Pharmaceutics, 2022)
“Also recorded” adds a separate entry of the source. Where two headings read alike, the source gives them in different places.

Legend:
quiescent PBLs = assay: Cytotoxicity in human PBLs, resting; assay type: cell-based; settings: PBL not stimulated with PHA; 72 h; read-out: IC50 PBLresting
Text: (§1) Human PBLs were obtained from healthy donors by separation on a Lymphoprep^TM (Serumwerk Bernburg AG) gradient and were used for the evaluation of the cytotoxic potential of compounds under study in normal human cells. Buffy coats were obtained from the Blood Transfusion Service, Azienda Ospedaliera of Padova and provided at this institution for research purposes without identifier. The samples were not obtained specifically for this study, and for this reason ethical approval was not required. Informed consent was obtained from blood donors according to Italian law no. 219 (21 October 2005). Data were treated by the Blood Transfusion Service according to Italian law on personal data management “Codice in materia di protezione dati personali” (Testo Unico D.L. Giugno 30, 2003 196).
(§2) After extensive washing with saline solution (BioConcept, Hank’s Buffered Saline Solution), quiescent PBLs were resuspended (1.0 × 10^6 cells/mL) in RPMI-1640 medium supplemented with 10% fetal bovine serum. Cytotoxicity evaluations were conducted also in cultures of proliferating PBLs, stimulated with […] PHA (Irvine Scientific). Both resting and proliferating lymphocytes were seeded in 96-well plates and maintained overnight at 37 °C in a humidified 5% CO2 incubator. Serial (5-fold) dilutions of the tested compounds were added, and viability was determined 72 h later by the resazurin viability assay as described above.

PBL stimulated with PHA = assay: Cytotoxicity in human PBLs stimulated with PHA; assay type: cell-based; settings: 72 h, read-out: IC50 PBLPHA
Text: as §1, §2

Bovine brain tubulin [1] = assay: Inhibition of tubulin polymerization; assay type: biochemical
In short: (§3)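 Polymerization: 10 μM tubulin preincubated with compound in 0.8 M monosodium glutamate (pH 6.6) at 30 °C, chilled to 0 °C, GTP added, rewarmed to 30 °C; assembly followed by turbidity. Colchicine binding: 0.5 μM tubulin with 5 μM each [3H]colchicine and test compound, bound label collected on a DEAE-cellulose filter.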

Bovine brain tubulin [2] = assay: Inhibition of [3H]colchicine binding to tubulin; settings: tubulin 0.5 µM, [3H]colchicine 5 µM, compound 5 µM
In short: as §3

HeLa cells [3] = assay: Cell cycle analysis (PI, flow cytometry); assay type: cell-based, human; settings: 50 nM, 24 h
Method: HeLa cells were seeded at 100,000 cells per well on 6-well tissue culture plates. After 24 h, cells were treated with different test compound concentrations or DMSO for another 24 h. Cells were then fixed and stained with propidium iodide (PI). The fluorescence intensity of 10,000 single-cell events was measured with a Beckman Coulter Cytomics FC500 instrument (Beckman Coulter Italia, Milano, Italy) and the data were analyzed with MultiCycle for Windows software from Phoenix Flow Systems (San Diego, CA, USA).

HeLa cells [4] = assay: Mitochondrial membrane potential (JC-1); assay type: cell-based, human; settings: Figure 8A representative plot; concentration not given
Method: The mitochondrial potential was evaluated in HeLa cells by flow cytometry using the cell membrane permeable cationic dye 5,5′,6,6′-tetrachloro-1,1′,3,3′-tetraethyl-imidacarbocyanine iodide (JC-1) (Molecular Probes) as described previously. The production of ROS was measured in HeLa cells by flow cytometry using 2′,7′-dichlorodihydrofluorescein diacetate (H2DCFDA) (Molecular Probes) as described previously.

HeLa cells [5] = assay: EdU cell proliferation assay; assay type: cell-based, human; settings: 25 or 50 nM; 24 h
Method: HeLa cells were seeded in a 6-well plate and, after a 24 h incubation, were treated with the desired compounds as indicated in the Biological Results and Discussion section. Cells were re-incubated for one day and then labeled with EdU (10 μM) for 3 h under cell culture conditions. Cells were harvested by centrifugation before proceeding with the fixation step using 3.7% formaldehyde. Next, permeabilization with 0.5% Triton X-100 was performed. The reaction cocktail was prepared and added to each well (100 μL/well) following the manufacturer’s instructions (EdU-Click 488, base click, Sigma-Aldrich. Milano Italy), and the plate was incubated at room temperature for 30 min in the dark. Cells were washed 2 times with phosphate-buffered saline (PBS) before reading samples with a Beckman Coulter Cytomics FC500 instrument (λex/λem = 496/516 nm).

HeLa cells [6] = assay: Scratch-migration assay; assay type: cell-based, human; settings: 0.625–10 nM; 24 and 48 h
Method: HeLa cells were plated at 100,000 cells per well in a 6-well plate and incubated at 37 °C for 24 h. The day after seeding, cells were nearly confluent, so the sheet of cells was gently wounded through the horizontal and vertical axes using a micropipette tip. Cells were rinsed twice with PBS solution to remove cell debris; next, they were treated with different sublethal concentrations of compound 8q. At different time points, four images per experimental condition were captured using a stereomicroscope at 10X magnification. The distance between the two edges of the wound area was quantified with ImageJ software.

Zebrafish embryos = assay: Acute toxicity assessment in zebrafish embryos; assay type: in vivo, Danio rerio; settings: for Results (toxicity evaluation) / % Alterations 24 h / % Lethality 24 h / % Alterations 48 h / % Lethality 48 h: 72 hpf embryos
Method: Zebrafish embryos at 72 h post fertilization (hpf) were selected for the acute toxicity assay since, at that time, morphogenesis and function of the primary organ systems are complete. Embryos at 72 hpf were assayed in a 12-well plate, 20 larvae/well for each experimental condition.
The zebrafish embryos were treated as described in the Biological Results and Discussion section using drug concentrations selected on the basis of in vitro experimental data. The drugs were added directly to the fish water from 10 mM stock solutions in DMSO of tested compounds. […] CA-4P was employed as the reference compound.
The experiment was carried out at a constant temperature (28.5 °C) in the dark, and at 24 and 48 h time points, zebrafish were subjected to visual observation and image acquisition under a stereomicroscope (Nikon SMZ745T; Nikon, Japan). The number of dead zebrafish embryos for each condition was recorded, and morphological defects were evaluated. The survival rate (%) after treatment was calculated.

Structure (SMILES): Cc1cc(Nc2ccc(F)cc2)n2nc(NCCCc3ccccc3)nc2n1 [Compound 8q]
- IC50 (quiescent PBLs): > 10000 nM
- IC50 (PBL stimulated with PHA): > 10000 nM
- fold more potent than CA-4, tubulin polymerization (Bovine brain tubulin [1]): about 2 fold
- IC50 (Bovine brain tubulin [1]; read-out: IC50 tubulin polymerization): 520 nM
- IC50 (Bovine brain tubulin [1]; tubulin at 10 μM, read-out: Tubulin Assembly IC50 ± SD): 390 ± 20 nM
- Colchicine Binding % Inhibition ± SD (Bovine brain tubulin [2]): 88 ± 0.8%
- cells arrested in G2/M (HeLa cells [3]): 80%
- Monomers (%) (monomeric JC-1) (HeLa cells [4]): 64.4%
- EdU incorporation / cell proliferation (HeLa cells [5]): effective in reducing HeLa cell proliferation
- cell migration / wound closure (HeLa cells [6]): significantly arrested the movement of cells, preventing wound closure
- death, morphologic changes, developmental abnormalities (Zebrafish embryos; 100 nM and 1 μM, 24 and 48 h): no death and no morphologic changes or developmental abnormalities; also recorded: No abnormal phenotypes or developmental defects were seen
- Results (toxicity evaluation) (Zebrafish embryos; 100 nM): Not toxic
- % Alterations 24 h (Zebrafish embryos; 100 nM): 0%
- % Lethality 24 h (Zebrafish embryos; 100 nM): 0%
- % Alterations 48 h (Zebrafish embryos; 100 nM): 0%
- % Lethality 48 h (Zebrafish embryos; 100 nM): 0%
- Results (toxicity evaluation) (Zebrafish embryos; 1 μM): Not toxic
- % Alterations 24 h (Zebrafish embryos; 1 μM): 0%
- % Lethality 24 h (Zebrafish embryos; 1 μM): 0%
- % Alterations 48 h (Zebrafish embryos; 1 μM): 0%
- % Lethality 48 h (Zebrafish embryos; 1 μM): 0%
